Test results taken from ChEMBL document CHEMBL1201862, “PubChem BioAssay data set” (2004).
Calls of active or inactive are those of the source.

Assays:
Trypsin = Trypsin (Sus scrofa, UniProt P00761); experiment: porcine trypsin inhibitors, dose response, selectivity assay for Rce1 protease inhibitor project, biochemical, quenched peptide fluorescence, cherry-pick (AID 488789)
CAAX prenyl protease 1 = CAAX prenyl protease 1 (Saccharomyces cerevisiae S288c, UniProt P47154); experiment: Ste24 protease inhibitors, dose response, biochemical, S. cerevisiae, plate reader, cherry-pick (AID 488815)
[1] = growth induction of Burl-1 ts yeast mutant, dose response, counter-screen for SUMOylation pathway inhibitor project, whole organism, S. cerevisiae, luminescence (AID 463199); type: functional
Apelin receptor = Apelin receptor (Homo sapiens, UniProt P35414); experiment: APJ beta-arrestin recruitment antagonism, SAR follow-up, selectivity assay for CCR6 antagonist project, cell-based, luminescent, enzyme-fragment complementation (AID 588359); type: functional
[2] = target: T1, Mannose-6-phosphate isomerase (Homo sapiens, UniProt P34949); experiment: PMI enzyme inhibitors, confirmation, biochemical, fluorescence intensity (AID 1535)
T1 sequence (P34949 whole entry): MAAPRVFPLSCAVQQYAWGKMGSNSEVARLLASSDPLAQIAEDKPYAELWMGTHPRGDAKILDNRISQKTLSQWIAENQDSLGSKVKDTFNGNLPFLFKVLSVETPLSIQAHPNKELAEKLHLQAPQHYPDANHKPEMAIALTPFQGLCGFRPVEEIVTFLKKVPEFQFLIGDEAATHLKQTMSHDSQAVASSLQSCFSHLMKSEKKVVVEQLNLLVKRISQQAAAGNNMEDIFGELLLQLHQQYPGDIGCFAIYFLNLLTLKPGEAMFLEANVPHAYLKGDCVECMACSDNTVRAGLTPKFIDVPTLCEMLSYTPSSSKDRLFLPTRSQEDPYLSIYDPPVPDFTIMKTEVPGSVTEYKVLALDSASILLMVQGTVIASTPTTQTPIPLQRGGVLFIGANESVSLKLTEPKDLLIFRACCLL

Phosphomannomutase 2 = Phosphomannomutase 2 (Homo sapiens, UniProt O15305); experiment: Counter screen SAR assay for PMM2 inhibitors via a fluorescence intensity assay. [Related pubchem assays (depositor defined):AID1545, AID1574]
[3] = target: T2, Kappa-type opioid receptor (Homo sapiens, UniProt P41145); experiment: SAR analysis of small molecule agonists of the kappa opioid receptor via a luminescent beta-arrestin assay. [Related pubchem assays (depositor defined):AID1777, AID1786, AID1966, AID2133, AID2136, AID2348, AID2352, AID2357, AID2359, AID2370, AID2420, AID2478, AID2491, AID2492, AID2493, AID2497, AID2498, AID2500, AID449737, AID488822, AID488842]; type: functional
T2 sequence (P41145 whole entry): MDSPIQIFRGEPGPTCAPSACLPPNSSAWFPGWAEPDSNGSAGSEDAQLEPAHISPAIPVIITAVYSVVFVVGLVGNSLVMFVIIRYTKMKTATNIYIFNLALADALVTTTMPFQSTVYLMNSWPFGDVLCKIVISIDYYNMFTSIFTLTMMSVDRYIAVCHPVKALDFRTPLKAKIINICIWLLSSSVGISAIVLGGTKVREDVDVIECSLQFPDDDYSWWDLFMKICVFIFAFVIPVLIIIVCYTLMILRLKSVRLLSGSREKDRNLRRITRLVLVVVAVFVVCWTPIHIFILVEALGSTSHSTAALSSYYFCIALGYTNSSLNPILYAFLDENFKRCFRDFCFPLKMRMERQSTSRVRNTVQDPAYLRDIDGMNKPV

Mu-type opioid receptor [4] = target: T3, Mu-type opioid receptor (Homo sapiens, UniProt P35372); experiment: MOR agonists by imaging, SAR follow-up, image-based (AID 2352); type: functional
T3 sequence (P35372 whole entry): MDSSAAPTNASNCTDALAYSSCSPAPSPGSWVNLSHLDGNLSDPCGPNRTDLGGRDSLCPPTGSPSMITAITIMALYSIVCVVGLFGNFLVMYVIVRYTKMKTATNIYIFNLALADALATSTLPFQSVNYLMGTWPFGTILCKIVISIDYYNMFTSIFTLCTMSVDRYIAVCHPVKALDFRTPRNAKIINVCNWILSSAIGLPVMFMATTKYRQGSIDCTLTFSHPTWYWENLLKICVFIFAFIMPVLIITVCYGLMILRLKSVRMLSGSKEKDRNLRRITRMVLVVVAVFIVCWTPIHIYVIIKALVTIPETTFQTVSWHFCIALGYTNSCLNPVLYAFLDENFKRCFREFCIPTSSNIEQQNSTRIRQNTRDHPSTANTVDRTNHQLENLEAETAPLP

[5] = target: T4, Delta-type opioid receptor (Homo sapiens, UniProt P41143); experiment: DOR agonists, SAR follow-up, image-based (AID 2370); type: functional
T4 sequence (P41143 whole entry): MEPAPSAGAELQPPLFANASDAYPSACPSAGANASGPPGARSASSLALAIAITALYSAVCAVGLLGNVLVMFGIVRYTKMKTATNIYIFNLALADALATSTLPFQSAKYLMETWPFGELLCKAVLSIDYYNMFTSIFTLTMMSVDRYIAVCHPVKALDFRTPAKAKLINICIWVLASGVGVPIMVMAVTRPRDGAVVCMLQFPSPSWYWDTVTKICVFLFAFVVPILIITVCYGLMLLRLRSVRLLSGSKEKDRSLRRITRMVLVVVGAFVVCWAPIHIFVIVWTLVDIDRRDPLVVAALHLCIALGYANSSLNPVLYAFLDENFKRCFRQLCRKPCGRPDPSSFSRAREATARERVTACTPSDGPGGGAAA

[6] = target: T2, Kappa-type opioid receptor; experiment: KOR agonist analogs, arrestin-GFP redistribution, SAR follow-up, imaging, image-based, set 3 (AID 488833); type: functional
Mu-type opioid receptor [7] = target: T3, Mu-type opioid receptor; experiment: SAR Analysis of Agonists of the MOR Receptor using an Image-Based Assay - Set 3. [Related pubchem assays (depositor defined):AID1777, AID1785, AID1786, AID1966, AID2133, AID2136, AID2284, AID2285, AID2352]; type: functional
[8] = target: T2, Kappa-type opioid receptor; experiment: KOR antagonists by imaging, SAR follow-up, image-based (AID 2348); type: functional
Mu-type opioid receptor [9] = target: T3, Mu-type opioid receptor; experiment: MOR antagonists, SAR follow-up, image-based (AID 2420); type: functional;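 also: compounds added before stimulation of receptor with agonist DAMGO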
[10] = target: T4, Delta-type opioid receptor; experiment: SAR Analysis of Agonists of the DOR Receptor using an Image-Based Assay - Set 3. [Related pubchem assays (depositor defined):AID1777, AID1786]; type: functional
[11] = target: T2, Kappa-type opioid receptor; experiment: KOR agonist analogs, imaging readout, SAR follow-up, image-based (AID 2359); type: functional
[12] = target: T2, Kappa-type opioid receptor; experiment: SAR analysis of small molecule agonists of the kappa opioid receptor via a luminescent beta-arrestin assay - Set 3. [Related pubchem assays (depositor defined):AID1777, AID1785, AID1786, AID1966, AID2133, AID2136, AID2284, AID2500]; type: functional
[13] = target: T4, Delta-type opioid receptor; experiment: DOR antagonists, SAR follow-up, image-based (AID 2357); type: functional
[14] = target: T5, Dual specificity protein phosphatase 3 (Homo sapiens, UniProt P51452); experiment: VHR1 phosphatase inhibitors, primary screen, biochemical, absorbance, uHTS (AID 1654)
T5 sequence (P51452 whole entry): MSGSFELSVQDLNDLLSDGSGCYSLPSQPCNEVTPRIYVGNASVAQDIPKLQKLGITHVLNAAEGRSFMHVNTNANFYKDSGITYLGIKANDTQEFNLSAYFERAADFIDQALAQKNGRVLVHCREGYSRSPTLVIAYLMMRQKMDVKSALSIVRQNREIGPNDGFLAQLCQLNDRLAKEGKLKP

[15] = target: Serine/threonine-protein phosphatase PP1-alpha catalytic subunit (Homo sapiens, UniProt P62136); experiment: PP1 phosphatase inhibitors, dose response, biochemical, fluorescence (AID 2403);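 also: phosphatase turnover of OMFP into fluorescent 3-O-methylfluorescein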
Chain of Serine/threonine-protein phosphatase PP1-alpha catalytic subunit (P62136 whole entry): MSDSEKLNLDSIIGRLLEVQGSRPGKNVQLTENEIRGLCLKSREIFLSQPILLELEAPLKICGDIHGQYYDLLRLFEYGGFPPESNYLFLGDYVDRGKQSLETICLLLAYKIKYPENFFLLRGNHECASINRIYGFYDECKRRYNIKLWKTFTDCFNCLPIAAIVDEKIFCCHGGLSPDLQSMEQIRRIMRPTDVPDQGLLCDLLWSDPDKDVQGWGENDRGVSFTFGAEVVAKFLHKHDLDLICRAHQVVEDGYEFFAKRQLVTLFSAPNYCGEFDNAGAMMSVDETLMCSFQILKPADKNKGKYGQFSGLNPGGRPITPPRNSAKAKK

[16] = target: T6, Zinc finger protein mex-5 (Caenorhabditis elegans, UniProt Q9XUB2); experiment: MEX-5/TCR-2 RNA interaction inhibitors, dose response, biochemical, C. elegans, fluorescence polarization (AID 1960)
T6 sequence (Q9XUB2 whole entry): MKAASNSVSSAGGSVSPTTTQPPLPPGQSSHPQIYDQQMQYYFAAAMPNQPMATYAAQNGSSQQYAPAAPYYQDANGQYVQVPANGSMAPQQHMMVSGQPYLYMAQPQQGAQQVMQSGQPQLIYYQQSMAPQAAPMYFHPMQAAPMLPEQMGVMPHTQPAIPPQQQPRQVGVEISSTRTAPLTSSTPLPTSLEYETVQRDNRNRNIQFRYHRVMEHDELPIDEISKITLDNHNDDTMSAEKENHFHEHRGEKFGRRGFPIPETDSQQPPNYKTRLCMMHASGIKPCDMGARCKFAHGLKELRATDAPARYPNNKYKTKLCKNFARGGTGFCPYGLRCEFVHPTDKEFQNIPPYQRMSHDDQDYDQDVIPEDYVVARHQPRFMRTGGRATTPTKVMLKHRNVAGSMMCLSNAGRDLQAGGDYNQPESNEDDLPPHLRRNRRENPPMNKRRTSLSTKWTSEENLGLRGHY

[17] = target: T7, Voltage-gated N-type calcium channel alpha-1B subunit/Amyloid beta A4 precursor protein-binding family A member 1 (Homo sapiens, UniProt Q00975+Q02410); type: protein assay
T7 sequence (Q00975 whole entry): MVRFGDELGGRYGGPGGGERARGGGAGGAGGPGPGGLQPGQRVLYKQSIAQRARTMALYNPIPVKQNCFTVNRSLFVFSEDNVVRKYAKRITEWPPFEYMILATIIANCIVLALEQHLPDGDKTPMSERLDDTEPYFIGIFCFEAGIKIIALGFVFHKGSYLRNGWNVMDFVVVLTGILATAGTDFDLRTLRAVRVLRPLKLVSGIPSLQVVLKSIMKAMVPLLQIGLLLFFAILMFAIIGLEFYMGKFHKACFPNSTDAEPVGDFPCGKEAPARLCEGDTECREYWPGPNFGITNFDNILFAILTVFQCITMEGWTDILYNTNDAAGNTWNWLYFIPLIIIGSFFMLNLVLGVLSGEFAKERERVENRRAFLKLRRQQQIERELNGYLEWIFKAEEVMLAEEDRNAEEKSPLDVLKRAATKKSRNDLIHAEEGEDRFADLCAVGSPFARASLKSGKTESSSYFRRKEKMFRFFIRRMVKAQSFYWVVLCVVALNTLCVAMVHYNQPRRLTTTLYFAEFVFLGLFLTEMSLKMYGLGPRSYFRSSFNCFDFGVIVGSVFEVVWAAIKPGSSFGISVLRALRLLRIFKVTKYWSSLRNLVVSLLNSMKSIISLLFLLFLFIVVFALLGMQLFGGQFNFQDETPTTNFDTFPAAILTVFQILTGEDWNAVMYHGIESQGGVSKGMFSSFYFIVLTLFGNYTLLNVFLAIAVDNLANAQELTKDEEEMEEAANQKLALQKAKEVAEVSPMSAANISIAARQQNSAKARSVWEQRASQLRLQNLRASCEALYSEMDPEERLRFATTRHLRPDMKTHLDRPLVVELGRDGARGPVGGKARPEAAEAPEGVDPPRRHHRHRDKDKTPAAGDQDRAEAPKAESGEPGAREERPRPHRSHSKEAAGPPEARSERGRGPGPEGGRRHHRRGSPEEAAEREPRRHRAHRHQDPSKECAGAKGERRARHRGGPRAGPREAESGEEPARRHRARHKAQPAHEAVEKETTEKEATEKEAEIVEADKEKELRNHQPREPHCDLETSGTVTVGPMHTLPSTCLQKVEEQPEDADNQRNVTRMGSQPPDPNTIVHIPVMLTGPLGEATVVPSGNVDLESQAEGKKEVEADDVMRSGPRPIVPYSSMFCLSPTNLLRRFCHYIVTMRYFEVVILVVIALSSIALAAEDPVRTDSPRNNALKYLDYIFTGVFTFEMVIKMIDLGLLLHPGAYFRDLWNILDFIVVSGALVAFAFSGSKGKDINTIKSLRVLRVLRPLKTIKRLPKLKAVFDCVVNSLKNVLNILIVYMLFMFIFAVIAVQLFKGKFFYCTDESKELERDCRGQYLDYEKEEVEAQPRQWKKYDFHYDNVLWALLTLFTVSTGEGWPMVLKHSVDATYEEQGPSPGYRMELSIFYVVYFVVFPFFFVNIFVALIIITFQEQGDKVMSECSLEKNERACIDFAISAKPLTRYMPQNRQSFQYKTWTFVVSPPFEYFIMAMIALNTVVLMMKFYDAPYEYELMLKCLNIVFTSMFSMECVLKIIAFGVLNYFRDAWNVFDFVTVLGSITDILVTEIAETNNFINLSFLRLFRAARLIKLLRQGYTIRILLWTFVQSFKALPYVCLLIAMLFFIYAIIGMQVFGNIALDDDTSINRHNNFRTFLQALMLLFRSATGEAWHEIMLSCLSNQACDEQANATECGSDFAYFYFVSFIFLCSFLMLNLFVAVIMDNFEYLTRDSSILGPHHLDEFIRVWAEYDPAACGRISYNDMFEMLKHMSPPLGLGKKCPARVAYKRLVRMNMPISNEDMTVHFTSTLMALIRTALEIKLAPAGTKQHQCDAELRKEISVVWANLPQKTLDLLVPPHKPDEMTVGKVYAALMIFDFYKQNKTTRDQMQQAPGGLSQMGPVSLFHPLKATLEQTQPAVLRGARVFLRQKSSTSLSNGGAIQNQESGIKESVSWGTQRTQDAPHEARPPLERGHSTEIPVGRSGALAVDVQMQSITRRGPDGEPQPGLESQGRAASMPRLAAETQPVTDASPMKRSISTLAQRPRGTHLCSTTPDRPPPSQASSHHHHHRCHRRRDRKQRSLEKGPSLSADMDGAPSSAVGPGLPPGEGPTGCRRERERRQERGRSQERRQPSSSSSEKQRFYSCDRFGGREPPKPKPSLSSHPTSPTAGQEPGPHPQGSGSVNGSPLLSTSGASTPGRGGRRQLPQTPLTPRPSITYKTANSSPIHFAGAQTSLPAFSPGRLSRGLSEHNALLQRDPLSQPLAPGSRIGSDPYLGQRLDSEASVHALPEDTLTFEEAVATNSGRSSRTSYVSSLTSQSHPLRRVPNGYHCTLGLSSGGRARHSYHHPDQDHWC
T7 sequence (Q02410 whole entry): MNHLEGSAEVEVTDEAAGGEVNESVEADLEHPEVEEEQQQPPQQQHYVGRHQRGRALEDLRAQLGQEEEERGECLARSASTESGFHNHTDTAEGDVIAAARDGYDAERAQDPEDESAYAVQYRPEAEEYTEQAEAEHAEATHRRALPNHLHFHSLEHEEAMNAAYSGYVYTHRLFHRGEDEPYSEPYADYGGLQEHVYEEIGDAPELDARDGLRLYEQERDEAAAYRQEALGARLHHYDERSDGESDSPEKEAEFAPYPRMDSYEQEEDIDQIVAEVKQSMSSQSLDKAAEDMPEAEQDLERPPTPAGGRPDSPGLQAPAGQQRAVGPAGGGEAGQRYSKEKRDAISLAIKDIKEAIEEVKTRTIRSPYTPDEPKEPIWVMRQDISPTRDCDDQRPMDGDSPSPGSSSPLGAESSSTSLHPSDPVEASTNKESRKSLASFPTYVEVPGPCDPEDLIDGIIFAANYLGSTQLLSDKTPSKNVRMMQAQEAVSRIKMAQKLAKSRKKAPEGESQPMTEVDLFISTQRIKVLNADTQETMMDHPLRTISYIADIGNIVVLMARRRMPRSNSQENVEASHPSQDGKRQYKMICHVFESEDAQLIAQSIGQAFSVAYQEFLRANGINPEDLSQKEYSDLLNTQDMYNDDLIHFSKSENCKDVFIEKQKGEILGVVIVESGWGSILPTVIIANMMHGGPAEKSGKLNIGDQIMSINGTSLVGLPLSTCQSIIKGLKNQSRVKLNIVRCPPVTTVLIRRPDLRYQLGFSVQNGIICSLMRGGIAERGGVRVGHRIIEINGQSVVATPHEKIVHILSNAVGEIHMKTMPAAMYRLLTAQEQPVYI

[18] = target: T7, Voltage-gated N-type calcium channel alpha-1B subunit/Amyloid beta A4 precursor protein-binding family A member 1; type: protein assay; remark: listed apart in the source
[19] = target: T8, Serine/threonine-protein phosphatase (Homo sapiens, UniProt Q9BPW0); experiment: Counterscreen for inhibitors of PP1: fluorescence-based biochemical high throughput dose response assay to identify inhibitors of Protein Phosphatase 5 (PP5). [Related pubchem assays: 2034 (Summary (PP5 inhibitors)), 1987 (PP5 inhibitors in singlate), 2235 (PP1 inhibitors in singlate)]
T8 sequence (Q9BPW0 whole entry): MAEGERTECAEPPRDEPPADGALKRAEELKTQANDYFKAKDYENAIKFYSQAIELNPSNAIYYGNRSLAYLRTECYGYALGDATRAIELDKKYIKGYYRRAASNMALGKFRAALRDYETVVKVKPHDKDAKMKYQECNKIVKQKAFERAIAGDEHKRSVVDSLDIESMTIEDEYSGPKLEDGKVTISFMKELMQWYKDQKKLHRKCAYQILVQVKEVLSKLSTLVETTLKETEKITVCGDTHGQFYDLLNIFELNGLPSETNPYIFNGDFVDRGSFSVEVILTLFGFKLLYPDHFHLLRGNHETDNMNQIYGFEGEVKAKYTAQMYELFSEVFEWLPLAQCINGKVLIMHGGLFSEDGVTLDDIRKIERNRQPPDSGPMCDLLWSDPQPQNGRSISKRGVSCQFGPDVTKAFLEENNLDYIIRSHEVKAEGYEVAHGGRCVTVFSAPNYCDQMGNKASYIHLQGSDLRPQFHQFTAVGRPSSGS

[20] = target: T5, Dual specificity protein phosphatase 3; experiment: VHR1 phosphatase inhibitors, biochemical (AID 1878)
[21] = target: T9, Dual specificity protein phosphatase 6 (Rattus norvegicus, UniProt Q64346); experiment: MKP-3 phosphatase inhibitors, primary screen, biochemical, rat enzyme, in vitro (AID 425)
T9 sequence (Q64346 whole entry): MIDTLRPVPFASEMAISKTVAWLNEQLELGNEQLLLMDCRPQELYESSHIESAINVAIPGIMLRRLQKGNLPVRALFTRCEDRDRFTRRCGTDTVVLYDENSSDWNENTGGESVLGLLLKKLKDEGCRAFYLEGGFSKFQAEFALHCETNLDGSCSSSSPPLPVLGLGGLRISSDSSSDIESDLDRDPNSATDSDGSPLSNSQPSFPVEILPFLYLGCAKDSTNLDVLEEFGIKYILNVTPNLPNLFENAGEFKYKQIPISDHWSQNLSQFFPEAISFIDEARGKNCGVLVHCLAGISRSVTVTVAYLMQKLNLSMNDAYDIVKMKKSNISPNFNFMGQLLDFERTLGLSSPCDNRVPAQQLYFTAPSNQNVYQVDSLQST

With `COc1cccc(C2CC3=Nc4ccccc4N(C(=O)CCC(=O)O)C(c4ccc(F)cc4)C3=C(O)C2)c1` (stereo not given) the AC50 (Trypsin) was 12 µM (active) and the AC50 (CAAX prenyl protease 1) was 21.6 µM (active).

For `S=C(NCCc1c[nH]c2ccccc12)NC1CC1`, the AC50 [1] was 51 µM (active).

In the case of `C/C(=N\Nc1ccc2ccccc2n1)c1ccccc1O`, the IC50 (Apelin receptor) was 4.12 µM (active).

In the case of `O=C1c2ccccc2SC1c1ccccc1` (stereo not given), the IC50 [2] was > 100 µM (inactive) and the IC50 (Phosphomannomutase 2) was > 100 µM (inactive).

For `Clc1ccccc1CSc1nnc(-c2ccccn2)n1Cc1ccco1`, the EC50 [3] was > 10 µM (inactive), the EC50 (Mu-type opioid receptor [4]) was > 32 µM (inactive) and the EC50 [5] was > 32 µM (inactive). For the same compound, the EC50 [6] was 11.6 µM (inactive), the EC50 (Mu-type opioid receptor [7]) was > 32 µM (inactive) and the IC50 [8] was > 32 µM (inactive). The IC50 (Mu-type opioid receptor [9]) was > 32 µM (inactive), the EC50 [10] was > 64 µM (inactive) and the EC50 [11] was 10.4 µM (active). The EC50 [12] was 9.07 µM (active) and the IC50 [13] was > 32 µM (inactive).

In the case of `O=C1NC(=S)N(c2ccc(F)cc2)C(=O)/C1=C/c1ccco1`, the IC50 [14] was < 1.23 µM (inactive), the IC50 [15] was 8.21 µM (active) and the EC50 [16] was 11.1 µM (active). The IC50 [17] was 3.33 µM (active), the IC50 [18] was 4.45 µM (active) and the IC50 [19] was > 67 µM (not active). For the same compound, the IC50 [20] was < 1.23 µM (inactive) and the IC50 [21] was 1.36 µM (active).
